Reference: EP4722205A1, “HETEROCYCLIC COMPOUND AND NOXIOUS ARTHROPOD-CONTROLLING COMPOSITION CONTAINING SAME” (Sumitomo Chemical Company, Limited, priority 2023, dated 2024)

Assays:
Assay type in all cases: in vivo
[1] = system: cotton aphids (Aphis gossypii); test: Test Method 11: foliar spray on cucumber seedling infested with cotton aphids (Formulation example 5); conditions: 120 h, spray 10 mL/seedling, examined after 5 days, 25°C, read-out: controlling value
[2] = system: cotton aphids (Aphis gossypii); test: Test Method 1: foliar spray on cucumber seedling infested with cotton aphids (Formulation example 1); conditions: 120 h, spray 10 mL/seedling, examined after 5 days, 25°C, read-out: controlling value
[3] = system: diamondback moth (Plutella xylostella); test: Test Method 4: sprayed cabbage leaves fed to second instar diamondback moth; conditions: 120 h, second instar larvae, after 5 days, 25°C, read-out: mortality of insects
Description: Next, an efficacy of the present compound on controlling harmful arthropods is shown by Test examples. The following tests in the test examples below were conducted at 25°C.
Test compounds are made to a formulation according to a similar method to that described in the Formulation example 1, and thereto is added water containing 0.03 v/v% of Shindain (registered trademark) to prepare a diluted solution containing a prescribed concentration of the test compound.
(§1) Cabbage (Brassicae oleracea) seedling (on the developmental stage of the second to third true leaf) is planted in a cup, and the diluted solutions are sprayed into the seedling at a ratio of 20 mL/seedling. Thereafter, the stem and leaf thereof are cut out and then is installed into a cup that is covered with filter paper on the bed of the cup. Five (5) diamondback moth (Plutella xylostella) at the second instar larval stage are released into the cup. After 5 days, the number of the surviving insects is counted, and the mortality of insects is calculated by the following equation. [formula]

[4] = system: common house mosquitos (Culex pipiens pallens); test: Test Method 12: mosquito larvae released into diluted solution; conditions: 24 h, last instar larvae, after 1 day, 25°C, read-out: controlling value
Description: (§2) The following tests in the test examples below were conducted at 25°C.
Into the diluted solution, 30 common house mosquitos (Culex pipiens pallens) at the last instar larval stage are released, and after 1 day, the state of the house mosquito larvae is examined, and the mortality of insects is calculated by the following equation. [formula]

[5] = system: cotton worm (Spodoptera litura); test: Test Method 9: sprayed cabbage seedling, third instar cotton worm (Formulation example 5); conditions: 144 h, third instar larvae, after 6 days, 25°C, read-out: controlling value
Description: as §2
(§3) Cabbage (Brassicae oleracea) seedling (on the developmental stage of the third to fourth true leaf) is planted in a cup, and the diluted solutions are sprayed into the seedling at a ratio of 20 mL/seedling. Thereafter, ten (10) cotton worm (Spodoptera litura) at the third instar larval stage are released onto the seedling. After 6 days, the number of the surviving insects is counted, and the mortality of insects is calculated by the following equation. [formula]

[6] = system: diamondback moth (Plutella xylostella); test: Test Method 10: sprayed cabbage seedling, third instar diamondback moth (Formulation example 5); conditions: 144 h, third instar larvae, after 6 days, 25°C, read-out: controlling value
Description: as §2
as §3, with “diamondback moth (Plutella xylostella)” for “cotton worm (Spodoptera litura)”

[7] = system: cotton worm (Spodoptera litura); test: Test Method 3: sprayed cabbage leaves fed to second instar cotton worm; conditions: 120 h, second instar larvae, after 5 days, 25°C, read-out: mortality of insects
Description: as §2
as §1, with “cotton worm (Spodoptera litura)” for “diamondback moth (Plutella xylostella)”

Structure (SMILES) | mortality at 50 ppm [1] [%] | mortality at 200 ppm [1] [%] | mortality at 500 ppm [2] [%] | mortality at 500 ppm [3] [%] | mortality at 3.5 ppm [4] [%] | mortality at 200 ppm [5] [%] | mortality at 50 ppm [6] [%] | mortality at 200 ppm [6] [%] | mortality at 500 ppm [7] [%] | mortality at 50 ppm [5] [%]
CCSc1c(C(=O)N(C)c2nc3ccc(F)cc3n2C)nc2ccc(I)cn12 [compound 69] | ≥ 90 | ≥ 90 | ≥ 90 | ≥ 80 | – | – | – | – | – | –
CCS(=O)(=O)c1c(C(=O)N(C)c2nc3cc(F)c(Cl)cc3s2)nc2ccc(I)cn12 [compound 81] | – | – | – | ≥ 80 | – | – | – | – | – | –
CCS(=O)(=O)c1ccc(-n2cncn2)nc1C(=O)N(C)c1nc2cc(F)c(F)cc2s1 [compound 131] | – | – | – | ≥ 80 | ≥ 90 | ≥ 80 | ≥ 80 | ≥ 80 | ≥ 80 | –
CCS(=O)(=O)c1c(C(=O)N(C)c2nc3cc(F)ccc3s2)nc2ccc(I)cn12 [compound 24] | ≥ 90 | ≥ 90 | ≥ 90 | ≥ 80 | – | ≥ 80 | ≥ 80 | ≥ 80 | ≥ 80 | ≥ 80
CCS(=O)(=O)c1ccc(NC(=O)OC(C)(C)C)nc1C(=O)N(C)c1nc2cc(F)c(F)cc2s1 [compound 129] | – | – | – | ≥ 80 | ≥ 90 | ≥ 80 | – | ≥ 80 | ≥ 80 | –
CCSc1c(C(=O)N(C)c2nc3cccc(F)c3o2)nc2ccc(I)cn12 [compound 18] | – | – | ≥ 90 | ≥ 80 | – | – | – | – | – | –
CCS(=O)(=O)c1c(C(=O)N(C)c2nc3cc(F)cc(F)c3s2)nc2ccc(I)cn12 [compound 80] | – | – | – | ≥ 80 | – | ≥ 80 | – | ≥ 80 | ≥ 80 | –
CCCOc1cnc(C(=O)N(C)c2nc3cc(F)c(F)cc3s2)c(S(=O)(=O)CC)c1 [compound 126] | – | ≥ 90 | – | ≥ 80 | – | ≥ 80 | – | ≥ 80 | ≥ 80 | ≥ 80
CCS(=O)(=O)c1c(C(=O)N(CC#N)c2nc3cc(F)c(F)cc3s2)nc2ccc(I)cn12 [compound 98] | – | – | – | ≥ 80 | – | – | – | – | – | –
CCS(=O)(=O)c1c(C(=O)N(C)c2nc3cc(F)c(F)cc3s2)nc(-c2cnn(C(F)F)c2)n1C [compound 143] | – | – | – | ≥ 80 | – | – | – | – | ≥ 80 | –
CCS(=O)(=O)c1cccnc1C(=O)N(C)c1nc2cc(C(F)(F)F)ccc2o1 [compound 54] | – | – | ≥ 90 | ≥ 80 | – | – | – | – | – | –
C#CCN(C(=O)c1nc2ccc(I)cn2c1S(=O)(=O)CC)c1nc2cc(F)c(F)cc2s1 [compound 99] | – | – | – | ≥ 80 | – | – | – | – | – | –
CCS(=O)(=O)c1c(C(=O)N(C)c2nc3cc(F)c(F)cc3s2)nc2ccc(C3CC3)cn12 [compound 102] | ≥ 90 | ≥ 90 | ≥ 90 | ≥ 80 | – | ≥ 80 | ≥ 80 | ≥ 80 | ≥ 80 | ≥ 80
CCS(=O)(=O)c1c(C(=O)N(C)c2nc3cc(Cl)c(F)cc3s2)nn(C)c1C1CC1 [compound 145] | – | – | – | ≥ 80 | – | – | – | ≥ 80 | – | –
CCSc1cccnc1C(=O)N(C)c1nc2cc(C(F)(F)F)ccc2s1 [compound 49] | – | – | – | ≥ 80 | – | – | – | – | ≥ 80 | –
CCS(=O)(=O)c1cc(-n2cc(Cl)cn2)cnc1C(=O)N(C)c1nc2cc(F)c(F)cc2s1 [compound 112] | – | – | – | ≥ 80 | – | ≥ 80 | – | ≥ 80 | ≥ 80 | ≥ 80
CCS(=O)(=O)c1cc(OC(C)(C)C)cnc1C(=O)N(C)c1nc2cc(F)c(F)cc2s1 [compound 128] | – | ≥ 90 | ≥ 90 | ≥ 80 | – | ≥ 80 | ≥ 80 | ≥ 80 | ≥ 80 | ≥ 80

Structure (SMILES) | mortality at 50 ppm [1] [%] | mortality at 200 ppm [1] [%] | mortality at 500 ppm [2] [%] | mortality at 500 ppm [3] [%] | mortality at 3.5 ppm [4] [%] | mortality at 200 ppm [5] [%] | mortality at 50 ppm [6] [%] | mortality at 200 ppm [6] [%] | mortality at 500 ppm [7] [%] | mortality at 50 ppm [5] [%]
CCS(=O)(=O)c1c(C(=O)N(C)c2nc3cc(F)ccc3n2C)nc2ccc(I)cn12 [compound 79] | ≥ 90 | ≥ 90 | ≥ 90 | ≥ 80 | – | ≥ 80 | – | ≥ 80 | ≥ 80 | –
CCS(=O)(=O)c1c(C(=O)N(C)c2nc3cccc(Cl)c3s2)nc2ccc(I)cn12 [compound 27] | ≥ 90 | ≥ 90 | ≥ 90 | – | – | ≥ 80 | – | – | ≥ 80 | ≥ 80
CCS(=O)(=O)c1c(C(=O)N(C)c2nc3ccc(C)cc3s2)nc2ccc(I)cn12 [compound 32] | – | – | – | ≥ 80 | – | – | ≥ 80 | ≥ 80 | ≥ 80 | –
CCS(=O)(=O)c1c(C(=O)N(C)c2nc3ccc(F)nc3s2)nc2ccc(I)cn12 [compound 75] | – | ≥ 90 | ≥ 90 | ≥ 80 | – | ≥ 80 | – | ≥ 80 | ≥ 80 | –
CCS(=O)(=O)c1ccc(NCCCN(C)C)nc1C(=O)N(C)c1nc2cc(F)c(F)cc2s1 [compound 136] | – | – | – | ≥ 80 | ≥ 90 | – | – | ≥ 80 | – | –
CCS(=O)(=O)c1ccc(Nc2ccc(C)cc2)nc1C(=O)N(C)c1nc2cc(F)c(F)cc2s1 [compound 137] | – | – | – | ≥ 80 | – | – | – | – | – | –
CCS(=O)(=O)c1cc(C(F)(F)F)ccc1C(=O)N(C)c1nc2cc(F)c(F)cc2s1 [compound 120] | – | – | – | ≥ 80 | – | ≥ 80 | ≥ 80 | ≥ 80 | ≥ 80 | ≥ 80
CCS(=O)(=O)c1c(C(=O)N(C)c2nc3ccc(F)cc3n2C)nc2ccc(I)cn12 [compound 78] | ≥ 90 | ≥ 90 | ≥ 90 | ≥ 80 | – | – | – | ≥ 80 | ≥ 80 | –
CCSc1c(C(=O)N(C)c2nc3ccc(F)cc3s2)nc2ccc(I)cn12 [compound 2] | – | – | ≥ 90 | ≥ 80 | – | – | – | – | ≥ 80 | –
CCS(=O)(=O)c1cccnc1C(=O)N(C)c1nc2cc(C(F)(F)F)ccc2s1 [compound 55] | – | – | ≥ 90 | ≥ 80 | – | – | – | – | – | –
CCSc1c(C(=O)N(C)c2nc3cc(F)ccc3s2)nc2ccc(I)cn12 [compound 3] | – | – | – | ≥ 80 | – | – | – | – | ≥ 80 | –
CCS(=O)(=O)c1cccnc1C(=O)N(C)c1nc2cc(F)c(F)cc2s1 [compound 114] | – | – | – | ≥ 80 | – | – | – | – | ≥ 80 | –
CCS(=O)(=O)c1ccc(-c2ccccn2)nc1C(=O)N(C)c1nc2cc(F)c(F)cc2s1 [compound 133] | – | ≥ 90 | – | ≥ 80 | – | ≥ 80 | – | ≥ 80 | ≥ 80 | ≥ 80
CCS(=O)(=O)c1cc(-c2ccc(C#N)cc2)cnc1C(=O)N(C)c1nc2cc(F)c(F)cc2s1 [compound 60] | – | – | – | ≥ 80 | – | – | – | – | – | –
CCN(C(=O)c1nc2ccc(I)cn2c1S(=O)(=O)CC)c1nc2cc(F)c(F)cc2s1 [compound 96] | ≥ 90 | ≥ 90 | ≥ 90 | ≥ 80 | – | – | – | – | ≥ 80 | –
CCS(=O)(=O)c1c(C(=O)N(C)c2nc3cccc(F)c3o2)nc2ccc(I)cn12 [compound 39] | – | – | – | ≥ 80 | – | – | – | – | – | –
CCS(=O)(=O)c1c(C(=O)N(C)c2nc3cc(F)c(F)cc3s2)nc(Br)n1C [compound 140] | – | – | – | ≥ 80 | – | – | – | ≥ 80 | – | –
